Laboratory results as given in paper PMC4507791 (Drug Design, Development and Therapy, 2015).
Where “and” joins values, the source holds several entries; their conditions need not be identical. Equal entries are not always repeated.

Experiments:
[1] = target: T1, recombinant human MAO-A (Homo sapiens, UniProt P21397); assay: IC50 determination, inhibition of recombinant human MAO-A; type: biochemical; conditions: mean ± SD of triplicate determinations
T1 sequence (P21397 1-527): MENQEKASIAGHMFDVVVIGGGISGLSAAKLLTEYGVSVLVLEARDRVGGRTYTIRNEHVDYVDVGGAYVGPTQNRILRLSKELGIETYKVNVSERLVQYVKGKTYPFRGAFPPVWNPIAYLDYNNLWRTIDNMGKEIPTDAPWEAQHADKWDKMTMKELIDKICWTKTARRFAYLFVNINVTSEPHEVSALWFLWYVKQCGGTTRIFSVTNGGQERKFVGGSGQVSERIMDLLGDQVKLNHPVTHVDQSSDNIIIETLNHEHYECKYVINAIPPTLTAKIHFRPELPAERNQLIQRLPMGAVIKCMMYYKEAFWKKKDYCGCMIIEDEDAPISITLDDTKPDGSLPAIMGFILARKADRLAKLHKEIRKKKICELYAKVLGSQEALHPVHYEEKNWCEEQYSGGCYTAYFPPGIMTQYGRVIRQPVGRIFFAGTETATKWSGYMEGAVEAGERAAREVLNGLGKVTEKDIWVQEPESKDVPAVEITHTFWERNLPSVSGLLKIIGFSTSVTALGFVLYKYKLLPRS

[2] = target: T2, MAO-B (Homo sapiens, UniProt P27338); assay: IC50 determination, inhibition of recombinant human MAO-B; type: biochemical; conditions: for SI (selectivity index, IC50(MAO-A)/IC50(MAO-B)): selectivity for the MAO-B isoform
T2 sequence (P27338 1-520): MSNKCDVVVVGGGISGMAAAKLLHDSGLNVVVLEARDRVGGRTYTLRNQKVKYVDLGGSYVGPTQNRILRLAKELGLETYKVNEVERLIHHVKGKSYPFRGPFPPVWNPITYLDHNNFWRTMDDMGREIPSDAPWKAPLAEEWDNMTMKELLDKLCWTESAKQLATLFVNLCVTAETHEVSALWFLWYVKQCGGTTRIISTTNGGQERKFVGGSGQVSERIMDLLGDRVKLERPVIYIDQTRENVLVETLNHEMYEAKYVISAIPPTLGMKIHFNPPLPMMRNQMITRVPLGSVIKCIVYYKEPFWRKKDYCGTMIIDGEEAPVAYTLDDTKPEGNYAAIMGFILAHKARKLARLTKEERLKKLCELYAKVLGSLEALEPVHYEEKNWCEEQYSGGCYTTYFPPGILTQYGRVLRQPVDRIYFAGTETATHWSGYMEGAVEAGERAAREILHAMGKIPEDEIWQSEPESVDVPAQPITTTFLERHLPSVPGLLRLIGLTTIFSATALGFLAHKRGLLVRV

[3] = target: T2, MAO-B
[4] = target: human MAO-B (Homo sapiens, UniProt P27338); conditions: Lineweaver-Burk graphs linear, intersect on y axis

Row | IC50 [1] | SI (selectivity index, IC50(MAO-A)/IC50(MAO-B)) [2] | IC50 [2] [nM] | Reversibility of MAO-B inhibition by dialysis [3] | Residual MAO-B catalytic activity after dialysis (% of negative control value) ([3]; inhibitor at 4× IC50, incubated 15 minutes, dialyzed for 24 hours) [%] | Mode of MAO-B inhibition [4] | Fold weaker as MAO-B inhibitor than compound 2b ([2]; relative to weakest inhibitor of the series, 2b (IC50 = 0.157 µM)) [fold] | SMILES
1 | 8.36 ± 0.442 µM | 1,194 |  |  |  |  |  | CC(=O)c1ccc(OCc2ccccc2)cc1O [Compound 2a, 2-Acetyl-5-benzyloxyphenol]
2 | 4.7 ± 0.716 µM | 30 | 157 ± 41 |  |  |  |  | CC(=O)c1ccc(OCCc2ccccc2)cc1O [Compound 2b, 2-Acetyl-5-(2-phenylethoxy)phenol]
3 | 10.7 ± 2.3 µM | 178 | 60 ± 13 |  |  |  |  | CC(=O)c1ccc(OCCCc2ccccc2)cc1O [Compound 2c, 2-Acetyl-5-(3-phenylpropoxy)phenol]
4 | > 17.7 µM |  |  |  |  |  |  | CC(=O)c1ccc(OCc2cccc(F)c2)cc1O [Compound 2d, 2-Acetyl-5-(3-fluorobenzyloxy)phenol]
5 |  |  |  | only partially reversed | 52 | competitive inhibitor |  | CC(=O)c1ccc(OCc2ccc(F)cc2)cc1O [Compound 2e, 2-Acetyl-5-(4-fluorobenzyloxy)phenol]
6 | > 17.7 µM |  |  |  |  |  |  | CC(=O)c1ccc(OCc2cccc(Cl)c2)cc1O [Compound 2f, 2-Acetyl-5-(3-chlorobenzyloxy)phenol]
7 | 1.81 ± 0.284 µM |  |  |  |  |  |  | CC(=O)c1ccc(OCc2ccc(Cl)cc2)cc1O [Compound 2g, 2-Acetyl-5-(4-chlorobenzyloxy)phenol]
8 | 26.9 ± 1.8 µM | 1,921 | 14 ± 2 |  |  |  |  | CC(=O)c1ccc(OCc2cccc(I)c2)cc1O [Compound 2h, 2-Acetyl-5-(3-iodobenzyloxy)phenol]
9 | 17.7 ± 2.8 µM | 328 | 54 ± 10 |  |  |  |  | CC(=O)c1ccc(OCc2cccc(C)c2)cc1O [Compound 2i, 2-Acetyl-5-(3-methylbenzyloxy)phenol]
10 | 25.2 ± 0.939 µM | 969 | 26 ± 2 |  |  |  |  | CC(=O)c1ccc(OCc2ccc(C)cc2)cc1O [Compound 2j, 2-Acetyl-5-(4-methylbenzyloxy)phenol]
11 | 1.64 ± 0.213 µM | 71 | 23 ± 0.3 |  |  |  |  | CC(=O)c1ccc(OCc2cccc(C#N)c2)cc1O [Compound 2k, 2-Acetyl-5-(3-cyanobenzyloxy)phenol]
12 | 2.72 ± 0.352 µM | 680 | 4 ± 1 |  |  |  |  | CC(=O)c1ccc(OCc2ccc(C#N)cc2)cc1O [Compound 2l, 2-Acetyl-5-(4-cyanobenzyloxy)phenol]
13 | 13.6 ± 0.238 µM | 1,360 | 10 ± 3 |  |  |  |  | CC(=O)c1ccc(OCc2ccc(C(F)(F)F)cc2)cc1O [Compound 2m, 2-Acetyl-5-[4-(trifluoromethyl)benzyloxy] phenol]
14 | 60.4 ± 8 µM | 387 | 156 ± 50 |  |  |  |  | CCCCCCCOc1ccc(C(C)=O)c(O)c1 [Compound 2o, 2-Acetyl-5-heptyloxyphenol]
15 | 19.5 ± 2.47 µM | 722 | 27 ± 3 |  |  |  |  | CC(=O)c1ccc(OCc2ccccc2)cc1 [Compound 3a, 4′-Benzyloxyacetophenone]
16 | > 17.7 µM and 38.2 µM | 9,550 | 4 ± 1 |  |  |  |  | CCC(=O)c1ccc(OCc2ccccc2)cc1O [Compound 3b, 2-Propanoyl-5-benzyloxyphenol]
17 | 47.7 ± 3.12 µM | 1.2 | 39700 ± 5030 |  |  |  | 250 | CC(=O)c1ccc(O)cc1O [Compound 4, 2′,4′-dihydroxyacetophenone, reference compound]

Row | SMILES | IC50 [1] | SI (selectivity index, IC50(MAO-A)/IC50(MAO-B)) [2] | IC50 [2] [nM] | Reversibility of MAO-B inhibition by dialysis [3] | Residual MAO-B catalytic activity after dialysis (% of negative control value) ([3]; inhibitor at 4× IC50, incubated 15 minutes, dialyzed for 24 hours) [%] | Mode of MAO-B inhibition [4] | Fold weaker as MAO-B inhibitor than compound 2b ([2]; relative to weakest inhibitor of the series, 2b (IC50 = 0.157 µM)) [fold]
18 | CCCCOc1ccc(C(C)=O)c(O)c1 [Compound 2n, 2-Acetyl-5-butoxyphenol] | 8.65 ± 1.04 µM | 84 | 103 ± 15 |  |  |  | 
